Ends that are not written are not given here.
Assay: Pharmacokinetics of injected peptide in mice (ELISA)
Assay type: in vivo
Details: ELISA detection
Source text: FIG. 19. Detection of MENTSH mRNA and peptide and pharmacokinetics of injected peptide in mice. Northern blot hybridization identified the presence of MENTSH transcript in mitochondrial mRNA.
Northern blot hybridization identified the presence of MENTSH transcript in mitochondrial mRNA (FIG. 19). Further, the Inventors developed an ELISA assay for detection of MENTSH. […] Increasing persistent bioavailability of MENTSH by analogs, or other artificial modifications may further improve biological effects for therapeutic use.

Sequence: MKPNPATQNLSMLLNYPH [MENTSH, MKPNPATQNLSMLLNYPH]
- persistence of injected peptide: ~1 h
